According to ChEMBL document CHEMBL1201862, “PubChem BioAssay data set” (2004):
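How tested: cells in 96-well plates exposed to compound for 48 hours at five concentrations. The concentration for 50% growth inhibition is given as GI50.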 Calls of active or inactive are those of the source. No stated cut-off is given here; in the data, active = GI50 up to about 1.1 µM and inactive = higher.

Tests used:
Experiment in all cases: NCI-60 cell line screen, 48 h
[1] = tested on: ACHN
[2] = tested on: CCRF-CEM
[3] = tested on: EKVX
[4] = tested on: HCC 2998
[5] = tested on: HT-29
[6] = tested on: Malme-3M
[7] = tested on: NCI-H23
[8] = tested on: NCI-H460
[9] = tested on: SF-268
[10] = tested on: SF-295
[11] = tested on: SK-MEL-28
[12] = tested on: TK-10
[13] = tested on: U-251
[14] = tested on: UACC-62
[15] = tested on: CAKI-1

Measured: GI50

N/N=C1\C(=O)N(c2ccc(Cl)c(Cl)c2)C(=O)C1C(=O)Nc1ccc(Cl)c(Cl)c1 (configuration not stated)
inactive: [1] 43.2 µM | [2] 34.4 µM | [3] 89.1 µM | [4] 62.4 µM | [5] 49.9 µM | [6] > 100 µM | [7] 40.6 µM | [8] 54.5 µM | [9] 55.1 µM | [10] 31.9 µM | [11] 31 µM | [12] > 100 µM | [13] 31.1 µM | [14] 51.4 µM

CC(C(=O)N1C(=O)N(C(=O)C(C)C(O)c2ccccc2)C2CCCCC21)C(O)c1ccccc1 (configuration not stated)
inactive: [1] 58.9 µM | [2] 44.2 µM | [3] 81.3 µM | [5] > 10 µM | [6] 57.4 µM | [7] > 100 µM | [8] 49.1 µM | [9] > 100 µM | [10] 34.9 µM | [11] > 100 µM | [12] > 100 µM | [13] > 100 µM | [14] > 100 µM

CC(=O)OC1COC(N2CCc3cc([N+](=O)[O-])ccc32)C(OC(C)=O)C1OC(C)=O (configuration not stated)
inactive: [1] > 100 µM | [15] > 100 µM | [2] > 100 µM | [3] > 100 µM | [5] > 100 µM | [7] > 100 µM | [8] > 100 µM | [9] > 100 µM | [10] > 100 µM | [11] > 100 µM | [12] > 100 µM | [13] > 100 µM | [14] > 100 µM

COc1ccc(CCN2CCC(C#N)(c3ccc(OC)c(OC)c3)CC2)cc1OC
inactive: [1] > 100 µM | [2] > 100 µM | [3] > 100 µM | [4] > 100 µM | [5] > 100 µM | [6] > 100 µM | [7] > 100 µM | [8] > 100 µM | [9] > 100 µM | [10] 79.6 µM | [11] > 100 µM | [12] 76.2 µM | [13] > 100 µM | [14] > 100 µM

C=CCN(N=O)C(=O)NCCCCC(NC(C)=O)C(=O)NCc1ccccc1 (configuration not stated)
inactive: [1] > 100 µM | [15] > 100 µM | [2] > 100 µM | [3] > 100 µM | [5] > 100 µM | [6] > 100 µM | [7] > 100 µM | [8] > 100 µM | [9] > 100 µM | [10] > 100 µM | [11] > 100 µM | [12] > 100 µM | [13] > 100 µM | [14] > 100 µM

O=C1C(c2ccc(Br)cc2)=[N+]([O-])c2ccccc21
inactive: [1] 13.4 µM | [2] 4.12 µM | [3] 16 µM | [4] 13.5 µM | [5] 21.6 µM | [6] 18.4 µM | [7] 15.8 µM | [8] 16.9 µM | [9] 17.6 µM | [10] > 10 µM | [11] 20.2 µM | [12] 15.9 µM | [13] 14.7 µM | [14] 16 µM

O=C1CCC(=O)N1Sc1ccccc1
inactive: [1] > 100 µM | [15] > 100 µM | [2] 42.4 µM | [3] > 100 µM | [7] > 100 µM | [8] > 100 µM | [9] > 100 µM | [10] > 100 µM | [11] > 100 µM | [12] > 100 µM | [13] > 100 µM | [14] > 100 µM

Cc1cc(C)c(N)c(C)c1N
inactive: [1] > 100 µM | [2] > 100 µM | [3] > 100 µM | [4] > 100 µM | [6] > 100 µM | [7] > 100 µM | [8] > 100 µM | [9] > 100 µM | [10] > 100 µM | [11] > 100 µM | [12] > 100 µM | [13] > 100 µM | [14] > 100 µM
